According to the NIST ThermoML archive (doi:10.1021/je7003929):

Conditions: Liquid, Vibrating tube method

CCCCCC [hexane]
Conditions | mass density [kg/m3]
313.12 K, 1019 kPa | 642.2
313.12 K, 2044 kPa | 643.5
313.12 K, 3023 kPa | 644.6
313.12 K, 4018 kPa | 645.8
313.12 K, 5016 kPa | 647
313.12 K, 6012 kPa | 648.1
313.12 K, 7016 kPa | 649.2
313.12 K, 8016 kPa | 650.3
313.12 K, 9020 kPa | 651.4
313.12 K, 10018 kPa | 652.5
313.12 K, 11020 kPa | 653.5
313.12 K, 12004 kPa | 654.6
313.12 K, 13007 kPa | 655.6
313.12 K, 14015 kPa | 656.6
313.12 K, 15006 kPa | 657.6
313.12 K, 16023 kPa | 658.6
313.12 K, 17015 kPa | 659.6
313.12 K, 18011 kPa | 660.5
313.12 K, 19009 kPa | 661.4
313.12 K, 20016 kPa | 662.4
313.12 K, 20995 kPa | 663.3
313.12 K, 22018 kPa | 664.2
313.12 K, 23018 kPa | 665.1
313.12 K, 24013 kPa | 666
313.12 K, 25002 kPa | 666.8
323.05 K, 1030 kPa | 633
323.05 K, 2010 kPa | 634.3
323.05 K, 3021 kPa | 635.6
323.05 K, 4018 kPa | 636.9
323.05 K, 5014 kPa | 638.1
323.05 K, 6007 kPa | 639.4
323.05 K, 7010 kPa | 640.6
323.05 K, 8012 kPa | 641.8
323.05 K, 9020 kPa | 643
323.05 K, 10008 kPa | 644.1
323.05 K, 11021 kPa | 645.2
323.05 K, 12011 kPa | 646.4
323.05 K, 13007 kPa | 647.4
323.05 K, 14007 kPa | 648.5
323.05 K, 15035 kPa | 649.6
323.05 K, 16011 kPa | 650.6
323.05 K, 17021 kPa | 651.6
323.05 K, 18020 kPa | 652.7
323.05 K, 19013 kPa | 653.7
323.05 K, 20001 kPa | 654.6
323.05 K, 21028 kPa | 655.6
323.05 K, 22004 kPa | 656.6
323.05 K, 23010 kPa | 657.5
323.05 K, 24021 kPa | 658.5
323.05 K, 25018 kPa | 659.4
332.85 K, 1020 kPa | 623.5
332.85 K, 2021 kPa | 625
332.85 K, 3022 kPa | 626.5
332.85 K, 4020 kPa | 627.8
332.85 K, 5011 kPa | 629.2
332.85 K, 6016 kPa | 630.6
332.85 K, 7012 kPa | 631.9
332.85 K, 8025 kPa | 633.3
332.85 K, 9012 kPa | 634.5
332.85 K, 10010 kPa | 635.7
332.85 K, 11012 kPa | 636.9
332.85 K, 12019 kPa | 638.1
332.85 K, 13007 kPa | 639.2
332.85 K, 14021 kPa | 640.4
332.85 K, 15014 kPa | 641.6
332.85 K, 16025 kPa | 642.8
332.85 K, 17011 kPa | 643.8
332.85 K, 18035 kPa | 644.9
332.85 K, 19014 kPa | 646
332.85 K, 20011 kPa | 647.1
332.85 K, 21015 kPa | 648.1
332.85 K, 22000 kPa | 649.1
332.85 K, 23012 kPa | 650.1
332.85 K, 24022 kPa | 651.2
332.85 K, 25030 kPa | 652.2
342.73 K, 1010 kPa | 613.9
342.73 K, 2010 kPa | 615.5
342.73 K, 3011 kPa | 617.1
342.73 K, 4010 kPa | 618.6
342.73 K, 5005 kPa | 620
342.73 K, 6031 kPa | 621.6
342.73 K, 7020 kPa | 623
342.73 K, 8009 kPa | 624.4
342.73 K, 9015 kPa | 625.7
342.73 K, 10012 kPa | 627
342.73 K, 11006 kPa | 628.4
342.73 K, 12014 kPa | 629.7
342.73 K, 13011 kPa | 630.9
342.73 K, 14014 kPa | 632.2
342.73 K, 15008 kPa | 633.4
342.73 K, 16006 kPa | 634.6
342.73 K, 17021 kPa | 635.7
342.73 K, 18016 kPa | 636.9
342.73 K, 19025 kPa | 638
342.73 K, 20037 kPa | 639.2
342.73 K, 21025 kPa | 640.3
342.73 K, 22016 kPa | 641.3
342.73 K, 23010 kPa | 642.5
342.73 K, 24023 kPa | 643.5
342.73 K, 25006 kPa | 644.5
352.56 K, 1017 kPa | 604
352.56 K, 2028 kPa | 605.8
352.56 K, 3030 kPa | 607.6
352.56 K, 4024 kPa | 609.2
352.56 K, 5022 kPa | 610.9
352.56 K, 6024 kPa | 612.5
352.56 K, 7027 kPa | 614
352.56 K, 8021 kPa | 615.5
352.56 K, 9022 kPa | 617
352.56 K, 10020 kPa | 618.4
352.56 K, 11023 kPa | 619.9
352.56 K, 12003 kPa | 621.2
352.56 K, 13021 kPa | 622.6
352.56 K, 14012 kPa | 623.9
352.56 K, 15007 kPa | 625.2
352.56 K, 16016 kPa | 626.5
352.56 K, 17012 kPa | 627.7
352.56 K, 18015 kPa | 629
352.56 K, 19003 kPa | 630.2
352.56 K, 20040 kPa | 631.4
352.56 K, 21005 kPa | 632.5
352.56 K, 22035 kPa | 633.8
352.56 K, 23002 kPa | 634.8
352.56 K, 24039 kPa | 636
352.56 K, 25000 kPa | 637.1
362.4 K, 1029 kPa | 593.8
362.4 K, 2020 kPa | 595.8
362.4 K, 3028 kPa | 597.6
362.4 K, 4029 kPa | 599.5
362.4 K, 5040 kPa | 601.3
362.4 K, 6026 kPa | 602.9
362.4 K, 7026 kPa | 604.7
362.4 K, 8004 kPa | 606.3
362.4 K, 9007 kPa | 607.9
362.4 K, 10009 kPa | 609.4
362.4 K, 11009 kPa | 610.9
362.4 K, 12010 kPa | 612.5
362.4 K, 13000 kPa | 614
362.4 K, 14028 kPa | 615.5
362.4 K, 15017 kPa | 616.8
362.4 K, 16014 kPa | 618.1
362.4 K, 17004 kPa | 619.5
362.4 K, 18002 kPa | 620.9
362.4 K, 18988 kPa | 622.1
362.4 K, 20027 kPa | 623.4
362.4 K, 21002 kPa | 624.7
362.4 K, 22018 kPa | 625.9
362.4 K, 23013 kPa | 627.1
362.4 K, 24001 kPa | 628.4
362.4 K, 25000 kPa | 629.5
